Measured values as given in PubChem BioAssay (NCI).
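Cultured in 96-well plates, cells were exposed to test compound for 48 hours across five concentrations. Here, GI50 denotes the concentration required for 50% inhibition of growth. At the TGI there is no net growth.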

Assays:
Experiment in all cases: NCI anticancer screen, dose series, 48 h
[1] = test system: A549 NSCLC
[2] = test system: BT-549 breast
[3] = test system: SF-268 CNS
[4] = test system: T-47D breast
[5] = test system: SW-620 colon
[6] = test system: UO-31 renal
[7] = test system: NCI/ADR-RES ovarian
[8] = test system: HS 578T breast

SMILES	GI50 [1] [µM]	TGI [1] [µM]	GI50 [2] [µM]	TGI [2] [µM]	GI50 [3] [µM]	TGI [3] [µM]	GI50 [4] [µM]	TGI [4] [µM]	GI50 [5] [µM]	TGI [5] [µM]	GI50 [6] [µM]	TGI [6] [µM]	GI50 [7] [µM]	TGI [7] [µM]	GI50 [8] [µM]	TGI [8] [µM]
Cc1ccc(OCCOCCOCCOCCOCCOc2ccc(C)n(O)c2=S)c(=S)n1O	0.0741	> 100	0.103	> 64.5	0.0693	> 100	0.0402	> 100	0.0544	> 100	0.0377	2.02	0.0478	> 77	1.67	74.6
Cn1c(=O)c(Oc2ccc(F)cc2F)cc2cnc(NC3CCOCC3)nc21	> 25	> 25	> 25	> 25	> 25	> 25	> 25	> 25	> 25	> 25	8.06	> 19.3	> 25	> 25	> 14.3	> 25
CC/C=C\C[C@H](O)C/C=C1/C(=O)C=C[C@@H]1C/C=C\CCCCO	3.35	11.5	2.46	6.68	4.53	23.9	2.63	11.1	2.98	15.2	1.63	3.23	3.35	38.4	9.24	> 100
COc1cc(C2CC(=O)Nc3c2c(C)nn3-c2nc3ccccc3[nH]2)cc(OC)c1O (centres undefined)	3.45	> 40.2	2.6	6.09	3.83	45	3.45	16.9	3.04	17.4	2.49	7.7	7.81	> 78.2	2.05	7.7
N#CC1=C(N)Oc2c(sc3c(Br)cccc23)C1c1ccc(Cl)cc1 (centres undefined)	1.16	3.52	0.962	12.7	0.917	7.62	0.464	11.6	0.408	> 100	0.614	2.54	0.332	1.35	0.855	18.1
O=[N+]([O-])c1ccc2c(c1)C(c1ccccc1Cl)=Nc1c(n[nH]c1-c1cccnc1)N2	> 25	> 25	> 25	> 25	> 25	> 25	> 25	> 25	> 25	> 25	> 25	> 25	> 25	> 25	> 19.9	> 25
CC(C)Cc1ccc(C(C)C(=O)NCc2ccc(Cn3c(=O)sn(CCCI)c3=O)cc2)cc1 (centres undefined)	1.39	3.12	0.571	1.81	1.46	2.95	1.64	5.93	0.259	0.75	0.407	1.49	1.35	5.19	0.653	1.83
C=C1C(=O)O[C@H]2[C@H]1CC/C(CNC(=O)/C=C/c1ccccc1F)=C\CC[C@@]1(C)O[C@@H]21	7	24.5	1.48	3.45	2.83	9.8	1.74	4.53	0.487	1.66	1.34	2.91	3.1	26.9	2.42	16.9
COC(=O)c1oc2c(C(=O)/C=C/c3ccc(OC)cc3)c(OCCN3CCOCC3)ccc2c1C	2.22	6.07	2.42	7.91	2.05	5.76	1.51	6.83	1.88	4.43	1.89	5.25	2.48	> 24	1.74	5.84
O=C1CC(N2C(=O)/C(=C/C(Cl)=C\c3ccc([N+](=O)[O-])cc3)SC2=S)C(=O)N1c1ccc(O)cc1 (centres undefined)	3.11	11.3	2.03	4.21	2.43	6.99	2.45	15.8	0.684	2.28	1.35	2.79	2.13	12.1	2.8	12.6
NC(N)=Nc1ccc(/C=C2\C=Cc3ccccc32)cc1	1.87	4.63	3.98	26.5	3.12	10.9	2.48	7.39	1.83	3.82	2.15	6.58	4.54	18.8	5.38	28.6
N#Cc1c(N/N=C\c2ccc(Cl)cc2)nc(N)nc1N1CCOCC1	29.6	> 100	> 100	> 100	> 100	> 100	> 100	> 100	47.1	> 100	39.6	> 100	43.1	> 100	41.1	> 100
COC(=O)CNc1nc(N(C)O)nc(N(C)O)n1	3.44	> 100	13.8	> 100	1.83	> 100	17.7	> 100	5.07	> 100	3.02	50.5	2.86	> 100	8.96	> 100
Cc1ccccc1C(C(=O)NC1CCCCC1)N(C(=O)CNc1ccc(C#N)cc1)c1cccc(F)c1 (centres undefined)	44	> 100	32.5	> 100	16.6	> 100	31.4	> 100	> 100	> 100	> 93.5	> 100	26.2	> 100	7.05	67.4
